Laboratory results: publication PMC9005681, “Use of AD Informer Set compounds to explore validity of novel targets in Alzheimer's disease pathology” (Alzheimer's & Dementia : Translational Research & Clinical …, 2022)

Tests used:
Assay in all cases: PDSP GPCR panel primary binding assays at 10 μM
[1] = target: T1, cloned human or rodent CNS receptors, channels, and transporters (PDSP panel) (Homo sapiens, UniProt P21917); settings: Receptor D4, primary assay, 10 μM
T1 construct: expressed in transfected cells
T1 sequence (P21917 1-419): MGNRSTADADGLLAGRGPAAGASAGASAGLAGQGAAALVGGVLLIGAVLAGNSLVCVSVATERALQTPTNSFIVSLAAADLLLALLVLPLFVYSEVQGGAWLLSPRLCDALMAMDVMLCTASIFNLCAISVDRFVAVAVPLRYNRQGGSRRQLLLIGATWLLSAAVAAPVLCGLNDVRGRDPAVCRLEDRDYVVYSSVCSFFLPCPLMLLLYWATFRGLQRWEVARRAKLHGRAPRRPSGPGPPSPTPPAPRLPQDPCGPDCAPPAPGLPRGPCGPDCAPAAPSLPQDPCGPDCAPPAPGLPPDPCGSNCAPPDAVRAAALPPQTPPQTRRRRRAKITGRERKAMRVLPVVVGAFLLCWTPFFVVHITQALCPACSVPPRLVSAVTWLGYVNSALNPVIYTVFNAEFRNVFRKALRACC
In short: (§1)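 PDSP panel of 46–47 cloned human or rodent CNS receptors, channels and transporters; radioligand displacement by compound at 10 μM, in quadruplicate. Where average displacement exceeded 50%, secondary binding followed as 11-point dose-response in triplicate (none for H3, PBR or GABAA).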

[2] = target: T2, cloned human or rodent CNS receptors, channels, and transporters (PDSP panel) (Homo sapiens, UniProt P08908); settings: Receptor 5-HT1A, primary assay, 10 μM
T2 construct: expressed in transfected cells
T2 sequence (P08908 1-422): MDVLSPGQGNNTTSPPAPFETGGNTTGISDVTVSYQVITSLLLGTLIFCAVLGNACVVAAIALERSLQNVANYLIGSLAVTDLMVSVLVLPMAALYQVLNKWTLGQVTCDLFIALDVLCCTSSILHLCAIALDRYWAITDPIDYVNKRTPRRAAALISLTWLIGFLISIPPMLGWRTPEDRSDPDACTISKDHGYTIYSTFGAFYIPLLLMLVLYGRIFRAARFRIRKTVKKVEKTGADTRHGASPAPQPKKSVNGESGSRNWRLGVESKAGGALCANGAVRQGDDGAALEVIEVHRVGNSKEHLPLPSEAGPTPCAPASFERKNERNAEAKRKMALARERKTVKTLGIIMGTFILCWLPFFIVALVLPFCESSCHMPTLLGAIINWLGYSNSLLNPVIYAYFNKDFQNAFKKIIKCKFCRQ
In short: as §1

[3] = target: T3, cloned human or rodent CNS receptors, channels, and transporters (PDSP panel) (Homo sapiens, UniProt P20309); settings: Receptor M3, primary assay, 10 μM
T3 construct: expressed in transfected cells
T3 sequence (P20309 whole entry): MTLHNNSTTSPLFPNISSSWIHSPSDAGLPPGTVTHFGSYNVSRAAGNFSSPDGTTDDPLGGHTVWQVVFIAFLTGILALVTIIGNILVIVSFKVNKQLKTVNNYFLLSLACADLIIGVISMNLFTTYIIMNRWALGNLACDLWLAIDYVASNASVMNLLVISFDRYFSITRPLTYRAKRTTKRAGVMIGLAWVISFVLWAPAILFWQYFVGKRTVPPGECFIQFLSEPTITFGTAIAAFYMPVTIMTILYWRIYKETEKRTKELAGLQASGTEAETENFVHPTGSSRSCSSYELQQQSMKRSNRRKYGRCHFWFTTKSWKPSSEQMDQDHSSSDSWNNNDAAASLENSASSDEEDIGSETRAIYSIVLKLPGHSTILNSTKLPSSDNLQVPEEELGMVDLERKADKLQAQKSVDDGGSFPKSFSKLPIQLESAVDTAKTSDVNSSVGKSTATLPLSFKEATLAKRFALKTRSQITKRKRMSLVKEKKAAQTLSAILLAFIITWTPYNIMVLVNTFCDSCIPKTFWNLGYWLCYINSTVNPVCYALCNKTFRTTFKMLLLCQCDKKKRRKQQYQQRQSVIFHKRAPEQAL
In short: as §1

[4] = test system: cloned human or rodent CNS receptors, channels, and transporters (PDSP panel); settings: 10 μM; for Inhibition 1 / Inhibition 2 / Inhibition 3 / Inhibition 4 / Mean %: primary assay; for Mean %: mean of Inhibition 1-4
In short: as §1

[5] = target: T4, cloned human or rodent CNS receptors, channels, and transporters (PDSP panel) (Homo sapiens, UniProt P08173); settings: Receptor M4, primary assay, 10 μM
T4 construct: expressed in transfected cells
T4 sequence (P08173 1-479): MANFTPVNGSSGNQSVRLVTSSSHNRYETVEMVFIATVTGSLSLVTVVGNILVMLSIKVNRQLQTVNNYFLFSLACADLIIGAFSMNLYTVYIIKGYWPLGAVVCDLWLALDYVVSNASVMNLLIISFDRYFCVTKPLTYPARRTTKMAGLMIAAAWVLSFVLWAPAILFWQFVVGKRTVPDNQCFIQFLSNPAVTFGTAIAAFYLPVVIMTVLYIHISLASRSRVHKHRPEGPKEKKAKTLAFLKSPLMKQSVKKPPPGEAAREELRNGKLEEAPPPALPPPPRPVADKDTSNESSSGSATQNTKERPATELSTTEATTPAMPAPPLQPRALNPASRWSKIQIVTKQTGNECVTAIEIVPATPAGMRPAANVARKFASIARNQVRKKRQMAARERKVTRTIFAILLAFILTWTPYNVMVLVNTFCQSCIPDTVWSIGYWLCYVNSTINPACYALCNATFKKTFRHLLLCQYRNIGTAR
In short: as §1

[6] = target: T5, cloned human or rodent CNS receptors, channels, and transporters (PDSP panel) (Homo sapiens, UniProt P50406); settings: Receptor 5-HT6, primary assay, 10 μM
T5 construct: expressed in transfected cells
T5 sequence (P50406 whole entry): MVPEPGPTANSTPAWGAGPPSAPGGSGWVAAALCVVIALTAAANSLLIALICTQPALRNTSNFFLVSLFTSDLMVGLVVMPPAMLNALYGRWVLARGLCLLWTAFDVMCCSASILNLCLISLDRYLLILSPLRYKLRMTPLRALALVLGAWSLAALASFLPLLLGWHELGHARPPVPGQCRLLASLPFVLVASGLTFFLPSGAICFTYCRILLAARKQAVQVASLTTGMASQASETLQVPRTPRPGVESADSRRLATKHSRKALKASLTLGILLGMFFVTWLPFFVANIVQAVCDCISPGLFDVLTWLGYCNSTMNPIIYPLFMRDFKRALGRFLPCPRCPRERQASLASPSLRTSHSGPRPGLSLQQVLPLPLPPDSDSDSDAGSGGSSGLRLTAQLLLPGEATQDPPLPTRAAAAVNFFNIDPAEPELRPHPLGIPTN
In short: as §1

Cl.NC(=O)c1cnc(N[C@@H]2CCCC[C@@H]2N)nc1Nc1cccc(-n2nccn2)c1 [UNC10302682A, P505-15 (PRT06207 HCl)]
Inhibition 1 [1]: 7.46%
Inhibition 2 [1]: 12.14%
Inhibition 3 [1]: 13.58%
Inhibition 4 [1]: 14.53%
Mean % ([1]; mean of Inhibition 1-4): 11.93%
Inhibition 1 [2]: 35.42%
Inhibition 2 [2]: 0.09%
Inhibition 3 [2]: 1.29%
Inhibition 4 [2]: 21.46%
Mean % ([2]; mean of Inhibition 1-4): 14.57%
Inhibition 1 [3]: 28.46%
Inhibition 2 [3]: 2.32%
Inhibition 3 [3]: 15.74%
Inhibition 4 [3]: 10.41%
Mean % ([3]; mean of Inhibition 1-4): 14.23%
Affinity for receptors in primary assays ([4]; 46-47 primary binding assays): possessed affinity for the most receptors in primary assays
Inhibition 1 ([4]; Receptor Alpha1A): 22.91%
Inhibition 2 ([4]; Receptor Alpha1A): 19.17%
Inhibition 3 ([4]; Receptor Alpha1A): 28.52%
Inhibition 4 ([4]; Receptor Alpha1A): 1.22%
Mean % ([4]; Receptor Alpha1A): 17.96%
Inhibition 1 ([4]; Receptor Alpha2A): 21.38%
Inhibition 2 ([4]; Receptor Alpha2A): 23.31%
Inhibition 3 ([4]; Receptor Alpha2A): 19.6%
Inhibition 4 ([4]; Receptor Alpha2A): 16.75%
Mean % ([4]; Receptor Alpha2A): 20.26%
Inhibition 1 ([4]; Receptor Alpha2C): 22.11%
Inhibition 2 ([4]; Receptor Alpha2C): 17.82%
Inhibition 3 ([4]; Receptor Alpha2C): 14.79%
Inhibition 4 ([4]; Receptor Alpha2C): 26.53%
Mean % ([4]; Receptor Alpha2C): 20.31%
Inhibition 1 ([4]; Receptor BZP Rat Brain Site): 6.42%
Inhibition 2 ([4]; Receptor BZP Rat Brain Site): 10.02%
Inhibition 3 ([4]; Receptor BZP Rat Brain Site): 1.11%
Inhibition 4 ([4]; Receptor BZP Rat Brain Site): 13.06%
Mean % ([4]; Receptor BZP Rat Brain Site): 7.65%
Inhibition 1 ([4]; Receptor DOR): -18.41%
Inhibition 2 ([4]; Receptor DOR): -4.86%
Inhibition 3 ([4]; Receptor DOR): 0.02%
Inhibition 4 ([4]; Receptor DOR): 6.53%
Mean % ([4]; Receptor DOR): -4.18%
Inhibition 1 ([4]; Receptor H3): 29.95%
Inhibition 2 ([4]; Receptor H3): 45.1%
Inhibition 3 ([4]; Receptor H3): 59.09%
Inhibition 4 ([4]; Receptor H3): 65.79%
Mean % ([4]; Receptor H3): 49.98%
Inhibition 1 ([4]; Receptor H4): 11.34%
Inhibition 2 ([4]; Receptor H4): 13.02%
Inhibition 3 ([4]; Receptor H4): 28.62%
Inhibition 4 ([4]; Receptor H4): 77.11%
Mean % ([4]; Receptor H4): 32.52%
Inhibition 1 ([4]; Receptor Sigma 1): 15.02%
Inhibition 2 ([4]; Receptor Sigma 1): 35.34%
Inhibition 3 ([4]; Receptor Sigma 1): 14.82%
Inhibition 4 ([4]; Receptor Sigma 1): 27.31%
Mean % ([4]; Receptor Sigma 1): 23.12%
Inhibition 1 ([4]; Receptor Sigma 2): 57.01%
Inhibition 2 ([4]; Receptor Sigma 2): 56.94%
Inhibition 3 ([4]; Receptor Sigma 2): 67.96%
Inhibition 4 ([4]; Receptor Sigma 2): 81.11%
Mean % ([4]; Receptor Sigma 2): 65.76%
Inhibition 1 [5]: 24.23%
Inhibition 2 [5]: 6.78%
Inhibition 3 [5]: 21.48%
Inhibition 4 [5]: 18.49%
Mean % ([5]; mean of Inhibition 1-4): 17.75%
Inhibition 1 [6]: -1.07%
Inhibition 2 [6]: -19.49%
Inhibition 3 [6]: -2.98%
Inhibition 4 [6]: -7.9%
Mean % ([6]; mean of Inhibition 1-4): -7.86%
